16 compounds from PubChem BioAssay (NCI) can be followed below.

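Grown in 96-well plates, cells were treated for 48 hours with each compound at five concentrations. Insufficient inhibition: endpoint recorded as highest concentration tested. TGI: total growth inhibition.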

Some test systems named below: HCT-116 colon; NCI-H460 lung; OVCAR-8 ovarian; PC-3 prostate; A549 NSCLC; 786-0 renal; SK-MEL-2 melanoma; UACC-257 melanoma; HL-60(TB) leukemia; NCI-H522 lung.
Common to all, as to assay: inhibition of tumour cell growth, NCI panel, 48 h

For the compound `O=C1CSC2=NC3=C(CSC/C3=C\c3ccccc3)C(c3ccccc3)N12` (centres undefined), the TGI in the assay on HCT-116 colon, in the assay on NCI-H460 lung, in the assay on OVCAR-8 ovarian, with PC-3 prostate, with A549 NSCLC and with 786-0 renal was above 100 µM each time. Besides, the TGI in the assay with SK-MEL-2 melanoma, with UACC-257 melanoma and in the assay on HL-60(TB) leukemia was above 100 µM in each case.
`CC(C)(C)OC(=O)Cn1ncn(NC(=O)Cc2ccccc2)c1=O`: the TGI in the assay on HCT-116 colon, with NCI-H460 lung, in the assay on OVCAR-8 ovarian, in the assay on NCI-H522 lung, in the assay on PC-3 prostate and with A549 NSCLC was above 10 µM throughout. In addition, the TGI in the assay on 786-0 renal and in the assay on UACC-257 melanoma was above 10 µM in each case.
For the compound `CCCC1(CCC)c2cc(/C=N\O)ccc2-c2ccc(-c3ccc(C(C)(C)C)cc3)cc21`, the TGI in the assay on HCT-116 colon is 54.8 µM; in the assay with NCI-H460 lung, above 100 µM; in the assay on OVCAR-8 ovarian, above 100 µM; in the assay with PC-3 prostate, above 100 µM; with A549 NSCLC, above 100 µM; in the assay with 786-0 renal it was above 100 µM. Also, the TGI in the assay with SK-MEL-2 melanoma was 99.3 µM; in the assay on UACC-257 melanoma it was above 100 µM; in the assay with HL-60(TB) leukemia, 51.7 µM.
`O=[N+]([O-])/C(C(Cl)=C(Cl)Cl)=C(\N1CCCCC1)n1nnc2ccccc21`: the TGI was determined as 33.4 µM with HCT-116 colon; 47.6 µM in the assay on NCI-H460 lung; 42.6 µM in the assay on OVCAR-8 ovarian; 40 µM in the assay with NCI-H522 lung; 32.8 µM with PC-3 prostate; 51.1 µM in the assay with A549 NSCLC. For the same compound, the TGI amounted to 33.5 µM in the assay on 786-0 renal, 37.7 µM with SK-MEL-2 melanoma and 37.2 µM in the assay on UACC-257 melanoma.
As to `CC1(C)OC[C@@H](O)[C@H](Br)CO1`, the TGI in the assay on HCT-116 colon, in the assay with NCI-H460 lung, in the assay on OVCAR-8 ovarian, with PC-3 prostate, with 786-0 renal and in the assay on SK-MEL-2 melanoma was above 100 µM each time. Besides, the TGI in the assay on UACC-257 melanoma and with HL-60(TB) leukemia was above 100 µM each time.
As to `CC1C2=C(CCCC2=O)N(c2ccc(Cl)cc2)C2=C1C(=O)CCC2`, the TGI with NCI-H460 lung, in the assay on OVCAR-8 ovarian, in the assay with PC-3 prostate, with A549 NSCLC, in the assay on 786-0 renal and in the assay with HL-60(TB) leukemia was above 100 µM throughout.
Turning to `CCOC(=O)C(C)c1nc2ccc(C(F)(F)F)cc2[nH]c1=O` (centres undefined), the TGI in the assay on HCT-116 colon, in the assay with NCI-H460 lung, with OVCAR-8 ovarian, in the assay on PC-3 prostate, with A549 NSCLC and in the assay with 786-0 renal was above 100 µM throughout. Besides, the TGI with SK-MEL-2 melanoma, in the assay on UACC-257 melanoma and with HL-60(TB) leukemia was above 100 µM each time.
In the case of `CC(=O)C(=[N+]=[N-])C(=O)N(C)CCC#N`, the TGI in the assay with HCT-116 colon, in the assay with NCI-H460 lung, with OVCAR-8 ovarian, with PC-3 prostate, in the assay with A549 NSCLC and in the assay with 786-0 renal was above 10 µM throughout. The TGI with SK-MEL-2 melanoma, in the assay on UACC-257 melanoma and in the assay with HL-60(TB) leukemia was above 10 µM throughout.
With `O=c1[nH]c(=O)n(C2CC(O)C(CO)O2)cc1C#Cc1ccc(F)cc1` (centres undefined), the TGI in the assay with NCI-H460 lung, with OVCAR-8 ovarian, in the assay with NCI-H522 lung, in the assay with A549 NSCLC, with 786-0 renal and in the assay on SK-MEL-2 melanoma was above 100 µM in each case. In addition, in the assay on UACC-257 melanoma, the TGI was above 100 µM.
Consider `C=CCOc1ccccc1C1(O)c2ccccc2C2=NCCCN21` (centres undefined), for which the TGI in the assay with HCT-116 colon is above 100 µM; in the assay on NCI-H460 lung, above 100 µM; with OVCAR-8 ovarian, 34.6 µM; in the assay with PC-3 prostate, 57.2 µM; in the assay on A549 NSCLC, above 100 µM; in the assay with 786-0 renal, above 100 µM. In addition, the TGI in the assay on UACC-257 melanoma was above 100 µM; in the assay with HL-60(TB) leukemia, 96.8 µM.
As for `COc1ccc2[nH]c3c(C)cc([N+](=O)[O-])c(C)c3c2c1`, the TGI in the assay on HCT-116 colon was 58.7 µM; with NCI-H460 lung, 39.7 µM; with OVCAR-8 ovarian, 79.9 µM; with NCI-H522 lung it was 43 µM; in the assay with A549 NSCLC, 75.3 µM; in the assay with 786-0 renal, above 100 µM. In addition, the TGI in the assay with SK-MEL-2 melanoma was 46 µM; with UACC-257 melanoma it was above 100 µM; with HL-60(TB) leukemia, 50.4 µM.
On to `Cc1c(N2C(=O)/C(=C/c3ccc(N(CCC#N)CCC#N)cc3)N=C2c2ccccc2)c(=O)n(-c2ccccc2)n1C`, for which the TGI with HCT-116 colon, in the assay on NCI-H460 lung, with OVCAR-8 ovarian, with A549 NSCLC, in the assay with 786-0 renal and in the assay on SK-MEL-2 melanoma was above 100 µM throughout. For the same compound, the TGI in the assay with UACC-257 melanoma and with HL-60(TB) leukemia was above 100 µM throughout.
As to `N#Cc1c(-c2ccc(Cl)cc2)c2c(N=Nc3c(O)ccc4ccccc34)[nH]nc2[nH]c1=O`, the TGI was 1.62 µM in the assay with HCT-116 colon; 0.851 µM in the assay on NCI-H460 lung; 1.21 µM in the assay on OVCAR-8 ovarian; 0.823 µM in the assay with NCI-H522 lung; 2.05 µM in the assay on PC-3 prostate; 2.3 µM with A549 NSCLC. Besides, the results for the TGI in the assay on 786-0 renal and in the assay with SK-MEL-2 melanoma were 2.04 µM and 0.943 µM, respectively.
`OC12c3ccccc3C3CCC4(OCCO4)C3C1c1ccccc12` (centres undefined): the TGI in the assay on HCT-116 colon, in the assay on NCI-H460 lung, with OVCAR-8 ovarian, in the assay on NCI-H522 lung, with A549 NSCLC and in the assay with 786-0 renal was above 100 µM throughout. Moreover, the TGI in the assay with SK-MEL-2 melanoma, with UACC-257 melanoma and with HL-60(TB) leukemia was above 100 µM each time.
For the compound `CC(CN(C)C)C(=O)c1ccccc1` (centres undefined), the TGI in the assay on HCT-116 colon was above 53 µM; in the assay with NCI-H460 lung, above 100 µM; in the assay with OVCAR-8 ovarian, above 91.2 µM; in the assay with NCI-H522 lung it was 4.32 µM; with A549 NSCLC, above 100 µM; in the assay with 786-0 renal, above 52.3 µM. In addition, the TGI is 66.8 µM with SK-MEL-2 melanoma, above 84.7 µM in the assay with UACC-257 melanoma and above 57 µM in the assay with HL-60(TB) leukemia.
Turning to `CN(C(=O)Cc1cc(Cl)c(Cl)cc1NC(=O)CN)[C@H]1CCCC[C@@H]1N1CCCC1`, the TGI with HCT-116 colon was above 100 µM; with NCI-H460 lung, above 100 µM; in the assay with OVCAR-8 ovarian, above 100 µM; in the assay with PC-3 prostate it was above 100 µM; in the assay with A549 NSCLC it was above 100 µM; with 786-0 renal, 38 µM. The figures for the TGI in the assay with SK-MEL-2 melanoma, with UACC-257 melanoma and with HL-60(TB) leukemia were 35.7 µM, 33.9 µM and 52.7 µM, respectively.
